Assay results as given in patent publication US8618100B2, “Compounds with antibacterial activity against Clostridium” (Elanco Animal Health Ireland Limited, priority 2010, dated 2013).
Values after ≈ are worked out from the molar mass of the structure shown.

How the values were obtained:
[1] = tested on: Staphylococcus epidermidis; assay: In-vitro test against several bacteria (D.1.3): S. epidermidis; settings: for IC90: Staphylococcus epidermidis, read-out: IC90 against S. epidermidis
[2] = tested on: Methicillin-Resistant Staphylococcus aureus; assay: In-vitro test against several bacteria (D.1.3): Methicillin-Resistant S. aureus; settings: for IC90: Staphylococcus aureus, read-out: IC90 against Methicillin-Resistant S. aureus
Mycobacterium smegmatis = assay: In-vitro test against several bacteria (D.1.3): M. smegmatis; assay type: cell-based; settings: Mycolicibacterium smegmatis; Mueller Hinton medium; 48 hours aerobic
Protocol: The plates were incubated at 37° C. […] Mycobacterium smegmatis: Mueller Hinton medium; incubation for 48 hours in aerobic conditions.

Pseudomonas aeruginosa = assay: In-vitro test against several bacteria (D.1.3): P. aeruginosa; settings: read-out: IC90 against P. aeruginosa
Listeria monocytogenes = assay: In-vitro test against several bacteria (D.1.3): L. monocytogenes; settings: read-out: IC90 against L. monocytogenes
Escherichia coli = assay: In-vitro test against several bacteria (D.1.3): E. coli; settings: read-out: IC90 against E. coli
Klebsiella pneumoniae = assay: In-vitro test against several bacteria (D.1.3): K. pneumoniae; settings: read-out: IC90 against K. pneumoniae
Enterococcus faecalis = assay: In-vitro test against several bacteria (D.1.3): E. faecalis; assay type: cell-based; settings: Gram positive, Todd Hewitt medium, 20-24 hours in 5% CO2; for IC90: Enterococcus faecalis
Protocol: (§1) The plates were incubated at 37° C. […] Enterococcus faecalis, Streptococcus pneumonia: Todd Hewitt medium; incubation for 20-24 hours in 5% CO2.

Streptococcus pneumonia = assay: In-vitro test against several bacteria (D.1.3): S. pneumonia; assay type: cell-based; settings: Gram positive, Todd Hewitt medium, 20-24 hours in 5% CO2; for IC90: Streptococcus pneumoniae
Protocol: as §1

Acinetobacter baumanii = assay: In-vitro test against several bacteria (D.1.3): A. baumanii; assay type: cell-based; settings: Acinetobacter baumannii; Gram negative; Nutrient broth; 20-24 hours aerobic
Protocol: (§2) The plates were incubated at 37° C.

Moraxella catarrhalis = assay: In-vitro test against several bacteria (D.1.3): M. catarrhalis; assay type: cell-based; settings: Gram negative, Brain heart Infusion medium, 20-24 hours aerobic, read-out: IC90 against M. cattarhalis
Protocol: as §2

Bacillus subtilis = assay: In-vitro test against several bacteria (D.1.3): B. subtilis; settings: read-out: IC90 against B. subtilis
[3] = tested on: Clostridium perfringens (strain 56); assay: microbe, parasite or virus in culture; assay type: cell-based; settings: 24 h, read-out: IC90 against C. perfringens
Staphylococcus aureus = assay: In-vitro test against several bacteria (D.1.3): S. aureus; settings: for IC90: Staphylococcus aureus, read-out: IC90 against S. aureus
[4] = tested on: Clostridium difficile (ATCC9689); assay: In-vitro anti-bacterial activity against C. difficile (D.1.2); assay type: cell-based; settings: Clostridioides difficile, Reinforced Clostridial broth, 37° C., 48 hours, anaerobic, OD 570 nm
[5] = Gram positive, Mueller Hinton medium, 20-24 hours aerobic

Q: For `CNc1nc(NCCCN[C@@H]2CCOc3c(Br)cc(Br)cc32)nc2c(Cl)cnn12` [(3)], which melting point is on record?
A: 108.8 to 118.6 °C

Q: With `Nc1nc(NCCCN[C@@H]2CCOc3c(Br)cc(Br)cc32)nc2c(Cl)cnn12` [(4)] as the compound, how does the melting point read?
A: 78.7 to 94.1 °C

Q: Which IC90 [1] does the source give for `Cl.Oc1nc(NCCCN[C@@H]2CCOc3c(Br)cc(Br)cc32)nc2ccnn12` [Compound (2)] here?
A: 15 µg/mL

Q: And the IC90 [2]?
A: 7 to 13 µg/mL

Q: What about the IC90 (Mycobacterium smegmatis) of the same compound?
A: > 31 µg/mL

Q: And the IC90 (Pseudomonas aeruginosa)?
A: > 75 µg/mL

Q: What about the IC90 (Listeria monocytogenes) of the same compound?
A: 2 µg/mL

Q: And the IC90 (Escherichia coli)?
A: > 31 µg/mL

Q: And the IC90 (Klebsiella pneumoniae)?
A: > 64 µg/mL

Q: What about the IC90 (Enterococcus faecalis) of the same compound?
A: 1.5 µg/mL

Q: What about the “IC90 against S. pneumonia” value (Streptococcus pneumonia) of the same compound?
A: >31 µg/mL

Q: What about the IC90 (Streptococcus pneumonia) of the same compound?
A: > 31 µg/mL

Q: What about the IC90 (Acinetobacter baumanii) of the same compound?
A: > 64 µg/mL

Q: What about the IC90 (Moraxella catarrhalis) of the same compound?
A: 16 µg/mL

Q: And the IC90 (Bacillus subtilis)?
A: 4 µg/mL

Q: What about the IC90 [3] of the same compound?
A: 0.5 µg/mL

Q: What about the IC90 (Staphylococcus aureus) of the same compound?
A: 8 to 15 µg/mL

Q: What about the melting point of the same compound?
A: 234.6 to 235.6 °C

Q: What about the IC90 [4] of the same compound?
A: 2 µg/mL

Q: What does the source list for `O=c1cc(NCCCN[C@@H]2CCOc3c(Br)cc(Br)cc32)[nH]c2ccsc12` [REP3123, 5-[3-((R)(+)-6,8-dibromo-chroman-4-ylamino)-propylamino]-4H-thieno[3,2-b]pyridine-7-one]?
A: IC90 against S. epidermidis [1, 5]: <0.25 µg/mL; IC90 [1]: < 0.25 µg/mL; IC90 against Methicillin-Resistant S. aureus [2, 5]: <0.25 µg/mL; IC90 [2]: < 0.25 µg/mL; IC90 (Mycobacterium smegmatis): 6 to 8 µg/mL (≈ 11.7 to 15.6 µM); IC90 (Pseudomonas aeruginosa): > 78 µg/mL; IC90 (Listeria monocytogenes): 0.12 µg/mL (≈ 0.234 µM); IC90 (Escherichia coli): > 32 µg/mL; IC90 (Klebsiella pneumoniae): > 64 µg/mL; IC90 (Enterococcus faecalis): < 0.25 µg/mL; IC90 against E. faecalis (Enterococcus faecalis): <0.25 µg/mL; IC90 (Streptococcus pneumonia): 1 µg/mL (≈ 1.95 µM); IC90 (Acinetobacter baumanii): > 64 µg/mL; IC90 (Moraxella catarrhalis): 16 µg/mL (≈ 31.2 µM); IC90 (Bacillus subtilis): 0.12 µg/mL (≈ 0.234 µM); IC90 [3]: 0.25 µg/mL (≈ 0.487 µM); IC90 against S. aureus (Staphylococcus aureus; [5]): <0.25 µg/mL; IC90 (Staphylococcus aureus): < 0.25 µg/mL; IC90 [4]: 0.5 to 1 µg/mL (≈ 0.974 to 1.95 µM)
